{"source": "PubChem BioAssay AID1259409", "about": "(Chemical Carcinogenesis Research Information System (CCRIS), 2018)", "origin": "cited, not measured here", "system": "rodent chemically induced tumor inhibition, incidence and multiplicity", "experiment": "CCRIS tumor inhibitor studies", "conditions": "Promoter: NONE USED", "data": [{"smiles": "CCC(C)C(NC(=O)C(C)NC(=O)C(Cc1cnc[nH]1)NC(=O)C1CCCN1C(=O)CNC(=O)C(CC(C)C)NC(=O)C(CC(C)C)NC(=O)C(Cc1ccc(O)cc1)NC(=O)CNC(=O)C(C)NC(=O)C(CO)NC(=O)C(CC(N)=O)NC(=O)C(CC(C)C)NC(=O)C(NC(=O)C(Cc1c[nH]c2ccccc12)NC(=O)CN)C(C)O)C(=O)NC(CC(=O)O)C(=O)NC(CC(N)=O)C(=O)NC(Cc1c[nH]cn1)C(=O)NC(CCCNC(=N)N)C(=O)NC(CO)C(=O)NC(Cc1ccccc1)C(=O)NC(Cc1cnc[nH]1)C(=O)NC(CC(=O)O)C(=O)NC(CCCCN)C(=O)NC(Cc1ccc(O)cc1)C(=O)NCC(=O)NC(CC(C)C)C(=O)NC(C)C(N)=O", "note": "(stereo not drawn)", "values": [{"measurement": "tumour outcome (control, treated, inhibition, significance)", "setting": "Carcinogen: AZOXYMETHANE, 25843-45-2, Dose [Inhibitor]: 0, 4 UG/KG BW IN OLIVE OIL 1/2 D FOR DURATION OF STUDY (STUDY DURATION: 45 WK), Route [Inhibitor]: SUBCUTANEOUS, Species: RAT, Strain/Sex: WISTAR/MALE, Target Tissue: Type of Lesion: COLON: ADENOMA OR ADENOCARCINOMA, Dose [Carcinogen]: 7.4 MG/KG BW IN 0.9% SALINE 1/WK FOR 10 WK", "value": "15/19 (79%), 7/19 (37%), 53%, p<0.05"}, {"measurement": "tumour outcome (control, treated, inhibition, significance)", "setting": "Carcinogen: N-METHYL-N'-NITRO-N-NITROSOGUANIDINE, 70-25-7, Dose [Inhibitor]: 0, 2 UG/KG BW IN OLIVE OIL 1/2 WK FOR 26 WK BEGINNING POST CARCINOGEN TREATMENT (STUDY DURATION: 52 WK), Route [Inhibitor]: SUBCUTANEOUS, Species: RAT, Strain/Sex: WISTAR/MALE, Target Tissue: Type of Lesion: STOMACH: ADENOCARCINOMA, Dose [Carcinogen]: 50 UG/ML IN DRINKING WATER FOR 25 WK", "value": "10/20 (50%), 10/20 (50%), 0%, not significant"}, {"measurement": "tumour outcome (control, treated, inhibition, significance)", "setting": "Carcinogen: N-METHYL-N'-NITRO-N-NITROSOGUANIDINE, 70-25-7, Dose [Inhibitor]: 0, 4 UG/KG BW IN OLIVE OIL 1/2 WK FOR 26 WK BEGINNING POST CARCINOGEN TREATMENT (STUDY DURATION: 52 WK), Route [Inhibitor]: SUBCUTANEOUS, Species: RAT, Strain/Sex: WISTAR/MALE, Target Tissue: Type of Lesion: STOMACH: ADENOCARCINOMA, Dose [Carcinogen]: 50 UG/ML IN DRINKING WATER FOR 25 WK", "value": "10/20 (50%), 3/20 (15%), 70%, p<0.01"}]}, {"smiles": "Cc1ccc(O)c(C(C)(C)C)c1", "values": [{"measurement": "tumour outcome (control, treated, inhibition, significance)", "setting": "Carcinogen: 7,12-DIMETHYLBENZ[A]ANTHRACENE, 57-97-6, Dose [Inhibitor]: 1.0% IN POWDERED DIET BEGINNING 1 WK POST CARCINOGEN DOSE FOR 51 WK (STUDY DURATION: 52 WK), Route [Inhibitor]: ORAL, Species: RAT, Strain/Sex: SPRAGUE-DAWLEY/FEMALE, Target Tissue: Type of Lesion: EAR DUCT: BENIGN TUMOR, Dose [Carcinogen]: 2.5 MG/100 G BW IN 0.5 ML SESAME OIL ONCE", "value": "7/19 (37%), 5/19 (26%), 29%, not calculated"}, {"measurement": "tumour outcome (control, treated, inhibition, significance)", "setting": "Carcinogen: 7,12-DIMETHYLBENZ[A]ANTHRACENE, 57-97-6, Dose [Inhibitor]: 1.0% IN POWDERED DIET BEGINNING 1 WK POST CARCINOGEN DOSE FOR 51 WK (STUDY DURATION: 52 WK), Route [Inhibitor]: ORAL, Species: RAT, Strain/Sex: SPRAGUE-DAWLEY/FEMALE, Target Tissue: Type of Lesion: MAMMARY GLAND: CARCINOMA, Dose [Carcinogen]: 2.5 MG/100 G BW IN 0.5 ML SESAME OIL ONCE", "value": "6/19 (32%), 6/19 (32%), 0%, not significant"}, {"measurement": "tumour outcome (control, treated, inhibition, significance)", "setting": "Carcinogen: 7,12-DIMETHYLBENZ[A]ANTHRACENE, 57-97-6, Dose [Inhibitor]: 1.0% IN POWDERED DIET BEGINNING 1 WK POST CARCINOGEN DOSE FOR 51 WK (STUDY DURATION: 52 WK), Route [Inhibitor]: ORAL, Species: RAT, Strain/Sex: SPRAGUE-DAWLEY/FEMALE, Target Tissue: Type of Lesion: MAMMARY GLAND: FIBROADENOMA, Dose [Carcinogen]: 2.5 MG/100 G BW IN 0.5 ML SESAME OIL ONCE", "value": "15/19 (79%), 2/19 (11%), 87%, p<0.001"}]}, {"smiles": "Cn1c(=O)[nH]c(=O)c2[nH]cnc21", "values": [{"measurement": "tumour outcome (control, treated, inhibition, significance)", "setting": "Carcinogen: URETHANE, 51-79-6, Dose [Inhibitor]: 0.05 UMOL/G BW GIVEN AT 6 HR INTERVALS DURING THE PERIOD OF 0 TO 36 HR AFTER CARCINOGEN TREATMENT FOLLOWED BY 5 MO OBSER, Route [Inhibitor]: INTRAPERITONEAL, Species: MOUSE, Strain/Sex: ICR/FEMALE, Target Tissue: Type of Lesion: LUNG: PAPILLARY ADENOMA, Dose [Carcinogen]: 0.1 MG/G BW ONCE", "value": "31/59 (53%), 26/44 (59%), -11%, not significant"}, {"measurement": "tumour outcome (control, treated, inhibition, significance)", "setting": "Carcinogen: URETHANE, 51-79-6, Dose [Inhibitor]: 0.25 UMOL/G BW 1/D DURING THE PERIOD OF 5 TO 9 D AFTER CARCINOGEN TREATMENT FOLLOWED BY OBSERVATION PERIOD UNTIL END OF, Route [Inhibitor]: INTRAPERITONEAL, Species: MOUSE, Strain/Sex: ICR/FEMALE, Target Tissue: Type of Lesion: LUNG: PAPILLARY ADENOMA, Dose [Carcinogen]: 1 MG/G BW ONCE", "value": "49/53 (93%), 50/53 (94%), -1%, not significant"}]}]}
